Experimental findings from patent US20260055107A1, “SERIES OF NITROGEN-CONTAINING BRIDGED HETEROCYCLIC COMPOUNDS AND PREPARATION METHOD THEREFOR” (CMS RESEARCH & DEVELOPMENT PTE. LTD., priority 2022, published 2026) are described below.

Series [1] addresses human complement Factor B protein (Homo sapiens (Human), UniProt P00751). Briefly: Complement human Factor B protein binding test (SPR method). The following applies: Biacore 8K, 1:1 Binding Kinetics Model. As for the experimental part: Experimental purpose: To detect the kinetic constants and affinity of the binding between the test compounds and human complement Factor B using the SPR method.
1-Ethyl-3-(3-dimethylaminopropyl) carbodiimide hydrochloride (EDC) and N-hydroxysulfosuccinimide sodium salt (NHS) were mixed in a 1:1 ratio, and complement Factor B was diluted to 20 μg/mL in acetic acid solution with a pH of 5.5. Using a biomacromolecule interaction analyzer Biacore 8K, the programmed settings were set to add the EDC/NHS, the FB protein solution and the 1 M ethanolamine-hydrochloric acid solution to the detection plate. The detection plate was placed in the machine detection chamber, and the EDC/NHS mixture, the complement Factor B protein solution and the 1 M ethanolamine-hydrochloric acid solution were sequentially injected onto the surface of the CM5 chip according to the procedure for chip activation, ligand coupling and deactivation. The flow cell 1 of each channel was used as a reference channel for surface activation and deactivation only, without injection of complement Factor B protein solution. All sample stock solutions were diluted with running buffer (PBST), and all samples were serially diluted 2 times in duplicate for 6 points. The prepared sample was transferred to the detection plate according to the program settings and the detection plate was placed in the sample chamber of Biacore 8K. The detection program was run, and the samples were injected into each channel of the chip sequentially according to the program, with a binding time of 120 s, a dissociation time of 600 s and a flow rate of 30 μL/min. The data were analyzed using Biacore Insight Evaluation Software: The data were fitted using a 1:1 Binding Kinetics Model to obtain the binding rate constant (kon), dissociation rate constant (koff) and dissociation equilibrium constant (KD) for binding of each test sample to complement Factor B protein.
(Surface plasmon resonance follows binding to a sensor surface in real time, without labels.)

Series [2] is described as follows: Plasma protein binding rate test (equilibrium dialysis), mouse. The series is classed as in vitro ADME, CD-1 mice. As to conditions: 2 μM, equilibrium dialysis 37° C. 4 hours, CD-1 mouse plasma. As for the experimental part:
(§1) Experimental purpose: To evaluate the protein binding rate of the compounds of the present disclosure in the plasma of CD-1 mice, SD rats, beagle dogs, cynomolgus monkeys and humans using equilibrium dialysis.
(§2) The test compounds were diluted with dialysis buffer into the plasma of the above five species to prepare samples with a final concentration of 2 μM. The samples were then added to a 96-well equilibrium dialysis device and dialyzed using phosphate buffered saline solution at 37° C. for 4 hours. Warfarin was used as a control compound in the experiment. The concentration of the test compounds and warfarin in the plasma and buffer was determined using LC-MS/MS. The free fraction of the compound was calculated by the following formula: PPB_Unbound (%)=100*FC/TC, where FC is the concentration of the compound at the buffer end of the dialysis plate; TC is the concentration of the compound at the plasma end of the dialysis plate; To is the concentration of the compound in the plasma sample at time zero.

Series [3] in a line: Plasma protein binding rate test (equilibrium dialysis), rat. The series is classed as in vitro ADME, SD rats. The following applies: 2 μM, equilibrium dialysis 37° C. 4 hours, SD rat plasma. As for the experimental part:
as §1, §2
For orientation: In equilibrium dialysis free small molecules cross a membrane that holds back macromolecules.

Series [4] is described as follows: Plasma protein binding rate test (equilibrium dialysis), dog. The following applies: 2 μM, equilibrium dialysis 37° C. 4 hours, beagle dog plasma. The series is classed as in vitro ADME, beagle dogs. As to the method:
as §1, §2

Series [5] in a line: Plasma protein binding rate test (equilibrium dialysis), cynomolgus monkey. The following applies: 2 μM, equilibrium dialysis 37° C. 4 hours. The series is classed as in vitro ADME, cynomolgus monkeys. As for the experimental part:
as §1, §2

Series [6] in a line: Plasma protein binding rate test (equilibrium dialysis), human. The series is classed as in vitro ADME. As to conditions: 2 μM, equilibrium dialysis 37° C. 4 hours. As for the experimental part:
as §1, §2

The nature of series [7]: In vitro liver microsomal stability test. The series is classed as in vitro ADME, human. As to conditions: 1 μM compound, 0.5 mg/mL liver microsomes, NADPH. As for the experimental part:
Liver microsomes: purchased from Corning or Xenotech, stored in a −80° C. refrigerator; reduced nicotinamide adenine dinucleotide phosphate (NADPH), supplier: Chem-Impex International, Cat. No.: 00616; control compounds: testosterone, diclofenac, propafenone.
Stock solution: 10 mM DMSO solution; preparation of working concentration: The stock solution was diluted to 100 μM using 100% acetonitrile (organic phase content: 99% acetonitrile, 1% DMSO).
Two 96-well incubation plates were prepared and named as T60 incubation plate and NCF60 incubation plate.
445 μL of microsomal working solution (liver microsomal protein concentration of 0.56 mg/mL) was added to both the T60 incubation plate and the NCF60 incubation plate. The two incubation plates were pre-incubated in a 37° C. water bath for approximately 10 minutes.
After pre-incubation was completed, 5 μL of the test compound or control compound working solution was added to both the T60 incubation plate and the NCF60 incubation plate and mixed well. 50 μL of potassium phosphate buffer per well was added to the NCF60 incubation plate to initiate the reaction. 180 μL of termination solution (acetonitrile solution containing 200 ng/mL tolbutamide and 200 ng/mL labetalol) and 6 μL of NADPH regeneration system working solution were added to a TO termination plate. […]
A general note: Liver microsomes are a subcellular fraction often used to study metabolism.

In another series the test system is Caco-2 cells. In words: In vitro Caco-2 cell permeability test. The series is classed as in vitro ADME. As to conditions: Caco-2, 2 μM, 120 minutes; for Apparent permeability coefficient: pH 7.40, direction not given; for Efflux ratio: Papp(BA)/Papp(AB). As for the experimental part: Cell culture was performed using MEM (minimum essential medium) supplemented with 2 mM L-glutamine, 10% fetal bovine serum (FBS), 100 U/mL penicillin-G and 100 μg/mL streptomycin. Cell culture conditions were 37±1° C., 5% CO2 and saturated humidity. When the cells reached a density of 80 to 90%, trypsin (0.05%, w/v)/EDTA (0.02%, w/v) digestion solution was added to digest the cells before seeding the plate. Cells were seeded in BD Falcon Transwell-96 well plates at a seeding density of 1×10^5 cells/cm^2. The cells were incubated in a carbon dioxide incubator for 22 days and then used for transport experiments.
Hank's balanced salt buffer (pH 7.40±0.05) containing 10 mM HEPES was used as the transport buffer in this project. The bidirectional transport of the test compound and the positive drug digoxin was tested at a concentration of 2 μM, with two parallel samples each, and the transport of fenoterol and propranolol from the apical to the basal end (A-B) was tested. The concentration of DMSO in the incubation system was controlled to 1% or less. After loading the sample, the cell plate was incubated at 37±1° C., 5% CO2 and saturated humidity for 120 minutes. All samples were vortexed and centrifuged at 3220 rpm and 20° C. for 20 minutes. The control sample and test sample were diluted in a 1:1 (v/v) ratio with ultrapure water and stored at 4° C., and the analytical tests were performed by liquid chromatography tandem mass spectrometry (LC/MS/MS).
In this study, the liquid chromatography tandem mass spectrometry (LC/MS/MS) method was used to semi-quantitatively analyze the peak area ratios of the test compounds and control samples fenoterol, propranolol and digoxin to the internal standard in the starting solution, receiving solution and administration well supernatant. The apparent permeability coefficient (Papp, cm/s), efflux rate and recovery rate were calculated using the following formula: • (1) Papp=(dCr/dt)×Vr/(A×C0), dCr/dt is the cumulative concentration of the compound at the receiving end per unit time (μM/s); Vr is the volume of the solution at the receiving end (0.075 mL and 0.250 mL for the solution at the apical and basal ends, respectively); A is the relative surface area of the cell monolayer (0.0804 cm^2); C0 is the starting concentration (nM) of the test sample at the administration end or the peak area ratio of the control sample. • (2) Efflux ratio=Papp(BA)/Papp(AB) • (3) Recovery rate (%)=100×[(Vr×Cr)+(Vd×Cd)]/(Vd×C0), C0 is the starting concentration (nM) of the test sample at the administration end or the peak area ratio of the control sample; Vd is the volume at the administration end (0.075 mL on the apical side and 0.250 mL on the basal side); Cd and Cr are the final concentration (nM) of the test sample or the peak area ratio of the control sample at the administration and receiving ends, respectively.

A short description of series [8]: Pharmacokinetic study in rats. The series is classed as in vivo, Male SD rats. The following applies: rat. As for the experimental part:
Male SD rats (6 to 8 weeks old, weighing 200 to 300 g) were selected.
Injection administration (IV) was carried out at a dose of 1 mpk and a concentration of 0.20 mg/mL with a vehicle of 20% PEG400/10% solutol/70% water. Oral administration (PO) was carried out at a dose of 10 mpk and a concentration of 1 mg/mL with a vehicle of 20% PEG400/10% solutol/70% water.
Sample collection: 0.03 mL of blood samples were collected by puncture of the saphenous vein in experimental animals at each time point, and the actual blood collection time was recorded.
All blood samples were added to commercial 1.5 mL EDTA-K2 anticoagulant tubes. After blood sample collection, DDV was added into the plasma matrix as a stabilizer, wherein the ratio of plasma to Dichlorvos (DDV) solution was 40:1. The DDV solution was a 40 mM DDV solution in acetonitrile/water (1:1). Within half an hour, the mixture was centrifuged at 4° C. and 3000 g for 10 minutes. The supernatant plasma was aspirated, quickly placed in dry ice and stored in a −80° C. refrigerator for LC-MS/MS analysis.
A non-compartmental model in Phoenix WinNonlin 6.3 pharmacokinetic software was used to process the plasma concentration data. The pharmacokinetic parameters were calculated using the linear-log trapezoidal method. C0: concentration needed immediately after intravenous injection; Cmax: the highest plasma drug concentration after administration; Tmax: time needed to reach drug peak concentration after administration; T1/2: time needed for plasma drug concentration to decrease by half; Vdss: apparent volume of distribution, refers to the proportional constant between the amount of drug in the body and the plasma drug concentration when the drug reaches dynamic equilibrium in the body. Cl: clearance rate, refers to the apparent volume of distribution of the drug cleared from the body per unit time; AUC0-last: area under the drug time curve, refers to the area surrounded by the plasma drug concentration curve against the time axis; F: bioavailability.

Structures are written as SMILES.

human complement Factor B protein, sequence (P00751 26-764): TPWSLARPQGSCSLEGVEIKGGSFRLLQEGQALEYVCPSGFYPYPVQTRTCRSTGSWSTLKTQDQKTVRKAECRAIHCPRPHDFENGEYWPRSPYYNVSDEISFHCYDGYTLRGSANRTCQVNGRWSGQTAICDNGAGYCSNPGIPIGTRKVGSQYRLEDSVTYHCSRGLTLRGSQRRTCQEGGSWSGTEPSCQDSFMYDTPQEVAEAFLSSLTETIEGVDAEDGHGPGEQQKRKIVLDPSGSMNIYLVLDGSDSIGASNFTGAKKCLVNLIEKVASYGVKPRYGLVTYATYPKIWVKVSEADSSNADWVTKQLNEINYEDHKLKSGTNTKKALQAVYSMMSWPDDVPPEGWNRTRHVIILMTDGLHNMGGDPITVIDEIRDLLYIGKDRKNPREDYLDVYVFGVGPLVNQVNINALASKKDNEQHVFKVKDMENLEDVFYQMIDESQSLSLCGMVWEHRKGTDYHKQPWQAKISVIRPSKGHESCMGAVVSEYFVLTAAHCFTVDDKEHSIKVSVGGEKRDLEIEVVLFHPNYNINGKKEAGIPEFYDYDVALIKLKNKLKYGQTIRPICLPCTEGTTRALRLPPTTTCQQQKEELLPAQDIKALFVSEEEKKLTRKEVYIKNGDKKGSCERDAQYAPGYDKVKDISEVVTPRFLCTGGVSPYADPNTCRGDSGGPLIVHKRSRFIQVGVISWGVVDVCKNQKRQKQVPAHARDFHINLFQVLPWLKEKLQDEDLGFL

For `COc1cc(C)c2[nH]ccc2c1CN1[C@@H]2CC[C@@]1(c1ccc(C(=O)O)cc1)C[C@@H](SC)C2` [Compound 2A], the Kd in series [1] was under 100 nM.

In series [1], `CCSC1CC2CCC(c3ccc(C(=O)O)cc3)(C1)N2Cc1c(OC)cc(C)c2[nH]ccc12.O=CO` (single isomer, unassigned) [Compound 1B] had a Kd of under 100 nM. The “Plasma protein binding (PPB) unbound, Mouse (M)” value in [2] was determined as 12.5%. The “Plasma protein binding (PPB) unbound, Rat (R)” value in series [3] came to 11.6%. For the same compound, the “Plasma protein binding (PPB) unbound, Dog (D)” value in series [4] is 16.2%. Also, the “Plasma protein binding (PPB) unbound, Cynomolgus monkey (C)” value in series [5] is listed as 17.4%. In addition, the “Plasma protein binding (PPB) unbound, Human (H)” value in series [6] was 13.3%. Besides, in [7], the “Human liver microsomal stability CLint” value was under 15 mL/min/kg. Also, in the series with Caco-2 cells, the Apparent permeability coefficient is given as 1.19 10^−6 cm/s and the Efflux ratio stood at 26.1.

In series [1], `COc1cc(C)c2[nH]ccc2c1CN1[C@@H]2CC[C@@]1(c1ccc(C(=O)O)cc1)C[C@H](C1CC1)C2` [Compound 3A] gave a dissociation constant Kd of under 100 nM.

`CCS[C@H]1C[C@H]2CC[C@@](c3ccc(C(=O)O)cc3)(C1)N2Cc1c(OC)cc(C)c2[nH]ccc12` [Compound 1A] returned an equilibrium dissociation constant (Kd) in series [1] of under 100 nM.

With `COc1cc(C)c2[nH]ccc2c1CN1C2CCC1(c1ccc(C(=O)O)cc1)CC(SC)C2.O=CO` (single isomer, unassigned) [Compound 2B], the dissociation constant Kd in series [1] was under 100 nM. Further, the “Plasma protein binding (PPB) unbound, Mouse (M)” value in [2] amounted to 22.2%. In series [3], the “Plasma protein binding (PPB) unbound, Rat (R)” value was 15.1%. Also, the “Plasma protein binding (PPB) unbound, Dog (D)” value in series [4] is 31.7%. The “Plasma protein binding (PPB) unbound, Cynomolgus monkey (C)” value in [5] is 25.6%. The “Plasma protein binding (PPB) unbound, Human (H)” value in series [6] is reported as 21.7%. In series [8] (IV 1 mpk), this compound displayed an AUC0-last of 5.645 µM·h, a C0 of 5.81 µM, a Cl of 6.5 mL/min/kg and a T1/2 of 1.16 h. In addition, in [8] (IV 1 mpk), the Vdss is recorded as 0.55 L/kg. Besides, in [8] (PO 10 mpk), the AUC0-last is 28.425 µM·h, the highest level (Cmax) was 9.03 µM, the T1/2 is listed as 11.7 h and the Tmax stood at 0.50 h. Further, in series [8] (PO 10 mpk vs IV 1 mpk), the F was found to be 50.4%. Besides, in the series on Caco-2 cells, the Apparent permeability coefficient is 1.56 10^−6 cm/s and the Efflux ratio is on record as 15.8.

Usually Kd stands for the concentration at which binding is half-saturated. One may read the Vdss as the apparent volume that relates the amount in the body to the concentration in plasma or blood. A word on the Cmax: it is the peak of the concentration-time curve. One may read the Tmax as the time from dosing to the highest level.
